Data on 3 compounds can be found in publication PMC5618426, “APETx4, a Novel Sea Anemone Toxin and a Modulator of the Cancer-Relevant Potassium Channel KV10.1” (Marine Drugs, 2017).

The test system of one data set is hERG. The following applies: cited from earlier work.
The next data set has as its system KV2.1. Conditions: ref [46]; cited from earlier work. The source says: APETx1 is proposed to bind to the voltage sensor paddle of hERG. In particular, the negative charge of E518 is expected to form an electrostatic interaction with the toxin [44]. Several other kinds of gating modifier toxins also bind to the extracellular exposed part of the S3–S4 domain. More precisely by binding to a glutamic acid residue and several hydrophobic amino acid residues. An example of these toxins is Hanatoxin (HaTx1) from the tarantula Grammostola spatulata.

The subject of another data set is KV10.1. Description: KV10.1 inhibition by related toxins (unpublished data). Type of data set: cell-based.
A further data set has as its system ASIC3. The following applies: cited from earlier work.

Turning to `COc1ccc(CCN2CCC(Nc3nc4ccccc4n3Cc3ccc(F)cc3)CC2)cc1` [astemizole], the “block of hERG (KV11.1)” value with hERG is listed as “block the cardiac human Eag-related gene (hERG, KV11.1)”.
With “HaTx1: toxin from the tarantula Grammostola spatulata (ECRYLFGGCKTTSDCCKHLGCKFRDKYCAWDFTFS; UniProt P56852 50-84, looked up)”, in the data set with KV2.1, the “gating modification of KV2.1” value is given as “modifies the channel gating of KV2.1”.
For APETx2, in the data set with KV10.1, the “effect on KV10.1” value is reported as “no effect on KV10.1”. Further, the IC50 in the data set with hERG is ~1.2 µM; in the data set on ASIC3, ~0.063 µM.

One may read the IC50 as the midpoint of a concentration-inhibition curve.
